Calls of active or inactive are those of the source. No cut-off for these calls is given here.
What was measured:
HCC827 [1] = test: Antiproliferative activity against human HCC827 cells assessed as inhibition of cell growth measured after 72 hrs by MTT assay; type: functional, cell-based; details: HCC827, 72 h
NCI-H1975 = test: Antiproliferative activity against human NCI-H1975 cells assessed as inhibition of cell growth measured after 72 hrs by MTT assay; type: functional, cell-based; details: NCI-H1975, 72 h
[2] = target: T1, Epidermal growth factor receptor (Homo sapiens, UniProt P00533); test: Inhibition of wild type EGFR (unknown origin) preincubated for 10 mins followed by substrate addition and measured after 50 mins in presence of ATP by HTRF assay
T1 sequence (P00533 whole entry): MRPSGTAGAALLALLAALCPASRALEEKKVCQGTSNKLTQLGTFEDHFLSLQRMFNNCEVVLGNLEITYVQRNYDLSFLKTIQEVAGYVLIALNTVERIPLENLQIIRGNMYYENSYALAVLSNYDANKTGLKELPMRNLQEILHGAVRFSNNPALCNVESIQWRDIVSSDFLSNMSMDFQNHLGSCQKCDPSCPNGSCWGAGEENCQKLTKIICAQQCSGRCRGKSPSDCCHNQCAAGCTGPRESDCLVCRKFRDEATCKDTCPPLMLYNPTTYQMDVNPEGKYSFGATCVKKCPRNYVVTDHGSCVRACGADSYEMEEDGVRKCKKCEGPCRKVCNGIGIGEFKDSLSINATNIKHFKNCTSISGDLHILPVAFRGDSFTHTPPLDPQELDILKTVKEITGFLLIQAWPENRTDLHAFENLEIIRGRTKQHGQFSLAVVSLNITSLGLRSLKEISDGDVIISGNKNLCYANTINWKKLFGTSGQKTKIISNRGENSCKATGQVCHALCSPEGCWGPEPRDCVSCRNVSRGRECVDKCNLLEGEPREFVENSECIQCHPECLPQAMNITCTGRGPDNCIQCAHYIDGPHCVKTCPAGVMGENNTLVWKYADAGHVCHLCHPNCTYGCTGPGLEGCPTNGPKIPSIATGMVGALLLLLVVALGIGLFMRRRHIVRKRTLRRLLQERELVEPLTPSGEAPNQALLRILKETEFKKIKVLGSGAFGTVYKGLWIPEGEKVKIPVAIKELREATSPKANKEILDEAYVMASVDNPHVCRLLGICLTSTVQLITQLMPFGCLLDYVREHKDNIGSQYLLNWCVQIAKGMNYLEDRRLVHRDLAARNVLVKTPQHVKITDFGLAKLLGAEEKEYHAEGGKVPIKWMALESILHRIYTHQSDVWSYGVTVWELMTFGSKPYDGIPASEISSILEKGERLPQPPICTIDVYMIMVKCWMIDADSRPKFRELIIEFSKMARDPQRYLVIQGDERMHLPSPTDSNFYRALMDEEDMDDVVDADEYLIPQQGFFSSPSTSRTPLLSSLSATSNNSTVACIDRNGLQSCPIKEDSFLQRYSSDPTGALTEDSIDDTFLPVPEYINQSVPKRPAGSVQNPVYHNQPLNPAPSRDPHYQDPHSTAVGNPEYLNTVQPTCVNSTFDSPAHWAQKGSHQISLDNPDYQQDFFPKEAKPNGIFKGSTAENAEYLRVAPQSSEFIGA

[3] = target: Epidermal growth factor receptor (Homo sapiens, UniProt P00533, L858R/T790M); test: Inhibition of EGFR L858R/T790M (unknown origin) preincubated for 10 mins followed by substrate addition and measured after 50 mins in presence of ATP by HTRF assay
Sequence of Epidermal growth factor receptor (Homo sapiens, UniProt P00533, L858R/T790M) (P00533 25-1210 T790M/L858R limits assumed): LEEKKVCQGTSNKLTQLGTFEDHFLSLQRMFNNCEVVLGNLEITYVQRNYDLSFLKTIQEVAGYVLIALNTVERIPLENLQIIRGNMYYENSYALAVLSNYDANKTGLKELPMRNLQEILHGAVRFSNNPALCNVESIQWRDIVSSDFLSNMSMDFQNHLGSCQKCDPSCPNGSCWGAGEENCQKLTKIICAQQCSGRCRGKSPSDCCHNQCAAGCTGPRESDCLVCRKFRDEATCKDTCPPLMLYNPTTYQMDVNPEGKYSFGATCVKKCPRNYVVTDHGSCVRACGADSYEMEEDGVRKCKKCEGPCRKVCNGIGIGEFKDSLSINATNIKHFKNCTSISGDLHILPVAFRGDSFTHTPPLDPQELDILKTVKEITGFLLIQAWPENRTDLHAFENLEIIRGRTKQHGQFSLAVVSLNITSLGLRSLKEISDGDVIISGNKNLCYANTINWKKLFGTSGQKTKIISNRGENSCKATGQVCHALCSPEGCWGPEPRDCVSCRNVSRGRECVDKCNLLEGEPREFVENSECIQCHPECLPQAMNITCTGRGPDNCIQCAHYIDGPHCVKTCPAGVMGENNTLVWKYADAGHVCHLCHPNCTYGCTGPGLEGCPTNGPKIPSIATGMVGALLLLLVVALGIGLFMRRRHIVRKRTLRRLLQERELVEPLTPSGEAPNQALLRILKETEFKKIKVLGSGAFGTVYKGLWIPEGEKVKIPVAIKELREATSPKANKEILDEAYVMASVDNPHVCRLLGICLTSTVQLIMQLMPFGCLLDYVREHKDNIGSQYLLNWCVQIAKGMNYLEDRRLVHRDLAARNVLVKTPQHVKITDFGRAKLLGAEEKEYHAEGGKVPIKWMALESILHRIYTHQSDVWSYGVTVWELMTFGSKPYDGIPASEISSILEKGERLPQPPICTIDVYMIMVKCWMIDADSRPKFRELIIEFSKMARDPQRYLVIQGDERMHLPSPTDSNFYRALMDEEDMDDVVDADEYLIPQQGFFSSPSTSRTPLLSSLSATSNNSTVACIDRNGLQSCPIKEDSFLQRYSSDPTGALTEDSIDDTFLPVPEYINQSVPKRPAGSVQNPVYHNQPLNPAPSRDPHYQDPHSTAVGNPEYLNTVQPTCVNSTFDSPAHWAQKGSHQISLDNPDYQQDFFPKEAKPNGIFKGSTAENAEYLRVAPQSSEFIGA

Homo sapiens [4] = organism: Homo sapiens; test: Inhibition of Akt (unknown origin) by HTRF assay relative to control; details: concentration not given here
Homo sapiens [5] = organism: Homo sapiens; test: Inhibition of FGFR (unknown origin) by HTRF assay relative to control; details: concentration not given here
[6] = target: Insulin-like growth factor 1 receptor (Homo sapiens) (UniProt P08069); test: Inhibition of IGF-1R (unknown origin) by HTRF assay relative to control; details: concentration not given here
Sequence of Insulin-like growth factor 1 receptor (Homo sapiens) (P08069 31-736 limits assumed): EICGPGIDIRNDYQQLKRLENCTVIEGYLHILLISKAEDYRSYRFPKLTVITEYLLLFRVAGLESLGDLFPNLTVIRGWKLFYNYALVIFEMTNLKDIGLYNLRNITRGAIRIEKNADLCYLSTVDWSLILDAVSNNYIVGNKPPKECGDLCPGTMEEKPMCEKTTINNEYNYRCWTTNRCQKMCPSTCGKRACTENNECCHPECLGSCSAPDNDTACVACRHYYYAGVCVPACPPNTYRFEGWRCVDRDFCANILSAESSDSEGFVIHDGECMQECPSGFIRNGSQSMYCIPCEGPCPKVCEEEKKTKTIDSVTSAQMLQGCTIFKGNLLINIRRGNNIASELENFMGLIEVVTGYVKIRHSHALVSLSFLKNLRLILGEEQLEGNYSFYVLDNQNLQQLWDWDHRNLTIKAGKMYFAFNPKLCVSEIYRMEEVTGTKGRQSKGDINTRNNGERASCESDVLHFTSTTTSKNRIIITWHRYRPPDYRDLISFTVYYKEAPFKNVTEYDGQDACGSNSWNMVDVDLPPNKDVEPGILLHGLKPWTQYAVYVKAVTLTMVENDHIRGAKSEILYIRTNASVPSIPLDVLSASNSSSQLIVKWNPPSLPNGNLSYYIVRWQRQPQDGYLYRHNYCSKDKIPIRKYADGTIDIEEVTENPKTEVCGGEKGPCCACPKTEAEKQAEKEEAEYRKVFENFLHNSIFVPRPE
Sequence of Insulin-like growth factor 1 receptor (Homo sapiens) (P08069 741-1367 limits assumed): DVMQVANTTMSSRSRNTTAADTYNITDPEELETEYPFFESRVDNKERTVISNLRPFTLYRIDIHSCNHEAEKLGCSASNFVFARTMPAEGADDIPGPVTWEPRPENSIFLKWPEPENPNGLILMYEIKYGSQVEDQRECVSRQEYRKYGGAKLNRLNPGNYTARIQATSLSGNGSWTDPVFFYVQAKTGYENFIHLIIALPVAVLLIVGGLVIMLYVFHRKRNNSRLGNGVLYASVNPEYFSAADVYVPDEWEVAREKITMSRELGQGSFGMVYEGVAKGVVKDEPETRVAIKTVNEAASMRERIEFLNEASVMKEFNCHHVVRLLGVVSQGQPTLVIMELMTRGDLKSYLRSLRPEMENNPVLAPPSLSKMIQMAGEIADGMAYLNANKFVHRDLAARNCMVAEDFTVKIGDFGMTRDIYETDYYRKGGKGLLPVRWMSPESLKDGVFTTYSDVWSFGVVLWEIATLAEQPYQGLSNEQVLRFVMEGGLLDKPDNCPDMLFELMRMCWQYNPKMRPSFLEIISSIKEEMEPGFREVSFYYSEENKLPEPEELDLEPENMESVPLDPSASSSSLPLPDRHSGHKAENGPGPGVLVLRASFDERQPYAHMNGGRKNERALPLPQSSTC

[7] = target: Serine/threonine-protein kinase mTOR (Homo sapiens) (UniProt P42345); test: Inhibition of mTOR (unknown origin) by HTRF assay relative to control; details: concentration not given here
[8] = target: Proto-oncogene tyrosine-protein kinase Src (Homo sapiens) (UniProt P12931); test: Inhibition of Src (unknown origin) by HTRF assay relative to control; details: concentration not given here
Sequence of Proto-oncogene tyrosine-protein kinase Src (Homo sapiens) (P12931 2-536 limits assumed): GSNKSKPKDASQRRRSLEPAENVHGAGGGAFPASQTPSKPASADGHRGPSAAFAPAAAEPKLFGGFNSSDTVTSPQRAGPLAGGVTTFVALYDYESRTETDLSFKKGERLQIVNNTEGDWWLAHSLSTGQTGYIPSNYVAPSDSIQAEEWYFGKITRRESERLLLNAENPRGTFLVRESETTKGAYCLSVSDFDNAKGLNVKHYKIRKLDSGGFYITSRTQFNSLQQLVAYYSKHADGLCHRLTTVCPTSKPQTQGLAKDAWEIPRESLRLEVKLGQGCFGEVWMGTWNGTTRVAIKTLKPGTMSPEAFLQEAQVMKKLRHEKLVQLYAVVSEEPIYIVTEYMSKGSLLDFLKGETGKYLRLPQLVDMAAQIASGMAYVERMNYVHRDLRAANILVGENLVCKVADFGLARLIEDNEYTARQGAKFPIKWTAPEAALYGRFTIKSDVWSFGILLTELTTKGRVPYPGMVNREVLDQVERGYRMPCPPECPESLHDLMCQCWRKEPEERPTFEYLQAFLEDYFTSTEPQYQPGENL

[9] = Cytotoxicity against human 2BS cells assessed as inhibition of cell viability measured after 72 hrs by MTT assay; type: toxicity, cell-based
HCC827 [10] = test: Induction of cell cycle arrest in human HCC827 cells assessed as accumulation of cells at G0/G1 phase at 30 nM measured after 24 hrs by PI staining based flow cytometry analysis (reference value: 54.36%); type: functional
HCC827 [11] = test: Induction of cell cycle arrest in human HCC827 cells assessed as accumulation of cells at S phase at 10 nM measured after 24 hrs by PI staining based flow cytometry analysis (reference value: 28.81%); type: functional
HCC827 [12] = test: Induction of cell cycle arrest in human HCC827 cells assessed as accumulation of cells at S phase at 30 nM measured after 24 hrs by PI staining based flow cytometry analysis (reference value: 28.81%); type: functional
HCC827 [13] = test: Induction of cell cycle arrest in human HCC827 cells assessed as accumulation of cells at G2/M phase at 10 nM measured after 24 hrs by PI staining based flow cytometry analysis (reference value: 16.83%); type: functional
HCC827 [14] = test: Inhibition of cell migration in human HCC827 cells at 10 to 100 nM measured upto 24 hrs by scratch-wound assay; type: functional, cell-based; details: dose 10-100 nM
HCC827 [15] = test: Induction of apoptosis in human HCC827 cells assessed as viable cells at 30 nM measured after 24 hrs by annexin V/PI staining based flu cytometry analysis (reference value: 84.0%); type: functional; details: read-out: Activity
HCC827 [16] = test: Induction of apoptosis in human HCC827 cells assessed as viable cells at 100 nM measured after 24 hrs by annexin V/PI staining based flu cytometry analysis (reference value: 84.0%); type: functional; details: read-out: Activity
HCC827 [17] = test: Induction of apoptosis in human HCC827 cells assessed as early apoptotic cells at 10 nM measured after 24 hrs by annexin V/PI staining based flu cytometry analysis (reference value: 3.2%); type: functional
HCC827 [18] = test: Induction of apoptosis in human HCC827 cells assessed as early apoptotic cells at 30 nM measured after 24 hrs by annexin V/PI staining based flu cytometry analysis (reference value: 3.2%); type: functional
HCC827 [19] = test: Induction of apoptosis in human HCC827 cells assessed as late apoptotic cells at 30 nM measured after 24 hrs by annexin V/PI staining based flu cytometry analysis (reference value: 5.50%); type: functional
[20] = target: Mitogen-activated protein kinase; ERK1/ERK2 (Homo sapiens) (UniProt P27361+P28482); test: Inhibition of ERK1/2 phosphorylation (unknown origin) at 100 nM by Western blotting analysis; type: protein assay
Sequence of Mitogen-activated protein kinase; ERK1/ERK2 (Homo sapiens) (P27361 whole entry, looked up): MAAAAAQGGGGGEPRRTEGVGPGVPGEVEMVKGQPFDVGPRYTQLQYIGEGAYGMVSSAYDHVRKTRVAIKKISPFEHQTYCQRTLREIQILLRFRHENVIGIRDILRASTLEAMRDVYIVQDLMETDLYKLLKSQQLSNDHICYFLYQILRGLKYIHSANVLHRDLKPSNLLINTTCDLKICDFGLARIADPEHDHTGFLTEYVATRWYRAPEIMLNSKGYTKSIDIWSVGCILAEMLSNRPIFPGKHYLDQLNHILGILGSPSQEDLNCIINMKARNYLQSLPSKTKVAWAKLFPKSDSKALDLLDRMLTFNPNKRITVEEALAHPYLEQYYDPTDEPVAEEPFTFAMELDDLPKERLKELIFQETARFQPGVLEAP
Sequence of Mitogen-activated protein kinase; ERK1/ERK2 (Homo sapiens) (P28482 whole entry, looked up): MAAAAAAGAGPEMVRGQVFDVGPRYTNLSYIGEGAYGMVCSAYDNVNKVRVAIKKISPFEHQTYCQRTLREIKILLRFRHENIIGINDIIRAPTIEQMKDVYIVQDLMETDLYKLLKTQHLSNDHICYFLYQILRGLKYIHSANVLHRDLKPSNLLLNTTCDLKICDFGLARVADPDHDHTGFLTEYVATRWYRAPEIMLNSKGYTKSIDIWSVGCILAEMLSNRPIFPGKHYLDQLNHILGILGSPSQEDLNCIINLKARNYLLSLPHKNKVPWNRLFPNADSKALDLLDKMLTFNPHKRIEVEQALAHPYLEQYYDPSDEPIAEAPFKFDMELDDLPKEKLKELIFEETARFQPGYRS

Homo sapiens [21] = organism: Homo sapiens; test: Inhibition of AKT phosphorylation (unknown origin) at 100 nM by Western blotting analysis
HCC827 [22] = test: Induction of apoptosis in human HCC827 cells assessed as activation of PARP level measured after 48 hrs by Western blot analysis; type: functional, cell-based; details: dose 10-400 nM
HCC827 [23] = test: Induction of apoptosis in human HCC827 cells assessed as activation of caspase-3 level measured after 48 hrs by Western blot analysis; type: functional, cell-based; details: dose 10-400 nM
HCC827 [24] = test: Antitumor activity against human HCC827 cells xenografted in BALB/c nude mouse assessed as tumor growth inhibition at 10 mg/kg/day, po measured every three days for 21 days by vernier caliper based analysis relative to control; type: functional; details: HCC827, 504 h, time 21 day, read-out: TGI
HCC827 [25] = test: Antitumor activity against human HCC827 cells xenografted in BALB/c nude mouse assessed as tumor growth inhibition at 50 mg/kg/day, po measured every three days for 21 days by vernier caliper based analysis relative to control; type: functional; details: HCC827, 504 h, time 21 day, read-out: TGI
[26] = Toxicity in BALB/c nude mouse assessed as animal death at 10 to 50 mg/kg/day, po measured every three days for 21 days; type: organism-based; details: in vivo, 504 h, dose 10-50 mg/kg/day, time 21 day
[27] = Toxicity in BALB/c nude mouse assessed as drug tolerability at 10 to 50 mg/kg/day, po measured every three days for 21 days; type: organism-based; details: in vivo, 504 h, dose 10-50 mg/kg/day, time 21 day
[28] = target: T1, Epidermal growth factor receptor; details: dose 100.0 nM
Description: Inhibition of EGFR phosphorylation (unknown origin) at 100 nM by Western blotting analysis

[29] = Inhibition of ERK (unknown origin) by HTRF assay relative to control; details: Homo sapiens; concentration not given here

## O=C(NO)c1sccc1Nc1nc(Nc2ccc(N3CCOCC3)cc2)ncc1Cl
HCC827 [1]
  IC50: 25 nM
NCI-H1975
  IC50: 168 nM
[2]
  IC50: 16.2 nM
[3]
  IC50: 43.9 nM
Homo sapiens [4]
  inhibition: < 70%
Homo sapiens [5]
  inhibition: < 70%
[6]
  inhibition: < 70%
[7]
  inhibition: < 70%
[8]
  inhibition: < 70%
[9]
  IC50 at 72 h: 24600 nM
HCC827 [10]
  Activity: 68.63%
HCC827 [11]
  Activity: 16.41%
HCC827 [12]
  Activity: 12.31%
HCC827 [13]
  Activity: 17.56%
HCC827 [14]
  inhibition: Active
HCC827 [15]
  viability at 0.03 µM: 70.7%
HCC827 [16]
  viability at 0.1 µM: 76%
HCC827 [17]
  Activity: 9.96%
HCC827 [18]
  Activity: 11.4%
HCC827 [19]
  Activity: 10.4%
[20]
  inhibition: Active
Homo sapiens [21]
  inhibition: Active
HCC827 [22]
  Activity: Dose-Dependent Effect
HCC827 [23]
  Activity: Dose-Dependent Effect
HCC827 [24]
  inhibition in vivo at 10 mg/kg/day: 50.6%
HCC827 [25]
  inhibition in vivo at 50 mg/kg/day: 89.5%
[26]
  Activity: Non-Toxic
[27]
  Activity: Non-Toxic
[28]
  inhibition: Active
[29]
  inhibition: < 70%

— ChEMBL document CHEMBL5518185, “Design, synthesis and antitumor activity of 4-arylamine substituted pyrimidine derivatives as noncovalent EGFR inhibitors overcoming C797S mutation” (Eur J Med Chem, 2024)
